In PMC12562640, “Investigating Amphoteric 3,4′-Biscoumarin-Based ortho-[(Dialkylamino)methyl]phenols as Dual MAO and ChE Inhibitors” (International Journal of Molecular Sciences, 2025):
≈ marks a conversion by molar mass, not a printed value. Where “and” joins values, the source holds several entries; their conditions need not be identical. Identical values can stand only once. Like-named read-outs stand apart in the source and are kept apart here.

Columns and labels:
human MAO-A [1] = molecular target: T1, human MAO-A (Homo sapiens, UniProt P21397); test: Inhibition kinetics and time course of MAO-A inhibition; format: biochemical; conditions: for reversibility of MAO-A inhibition: time course, absorbance of 4-hydroxyquinoline at 316 nm, inhibitor close to IC50
T1 construct: purchased Sigma Aldrich; host or cells: insect cells infected with baculovirus (microsomes)
T1 sequence (P21397 1-527): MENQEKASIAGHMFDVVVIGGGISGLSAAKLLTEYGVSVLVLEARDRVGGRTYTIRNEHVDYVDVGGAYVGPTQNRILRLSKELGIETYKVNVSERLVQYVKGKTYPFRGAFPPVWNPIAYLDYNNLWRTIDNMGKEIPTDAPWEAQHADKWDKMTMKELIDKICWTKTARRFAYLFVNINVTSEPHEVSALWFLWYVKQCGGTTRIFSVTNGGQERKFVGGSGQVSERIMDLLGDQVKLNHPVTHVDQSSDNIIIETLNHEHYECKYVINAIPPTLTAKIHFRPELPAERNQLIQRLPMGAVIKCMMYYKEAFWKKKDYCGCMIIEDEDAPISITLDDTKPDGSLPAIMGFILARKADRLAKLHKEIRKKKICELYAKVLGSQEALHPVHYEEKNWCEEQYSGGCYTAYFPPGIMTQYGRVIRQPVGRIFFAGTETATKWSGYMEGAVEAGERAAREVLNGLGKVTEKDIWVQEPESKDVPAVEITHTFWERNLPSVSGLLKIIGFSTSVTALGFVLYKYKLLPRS
Excerpt: For the sake of clarity, the position of the Mannich base (-CH2NR2) on the main coumarin core will be indicated as C8, whereas the positions of Cl or Br and OMe on the 4-coumarin-3-yl moiety will be indicated as C6′ and C8′.
Time courses of MAO-A inhibition by 2b and 5b, using a spectrophotometric assay measuring the absorbance of 4-
(1 picture or pasted object on this page, not shown here)

human huMAO-B = molecular target: T2, human huMAO-B (Homo sapiens, UniProt P27338); test: biochemical; format: biochemical; conditions: for inhibition at 10 µM / huMAO-B % inhibition: at 10 µM concentration, mean ± SD
T2 construct: purchased Sigma Aldrich; host or cells: insect cells infected with baculovirus (microsomes)
T2 sequence (P27338 1-520): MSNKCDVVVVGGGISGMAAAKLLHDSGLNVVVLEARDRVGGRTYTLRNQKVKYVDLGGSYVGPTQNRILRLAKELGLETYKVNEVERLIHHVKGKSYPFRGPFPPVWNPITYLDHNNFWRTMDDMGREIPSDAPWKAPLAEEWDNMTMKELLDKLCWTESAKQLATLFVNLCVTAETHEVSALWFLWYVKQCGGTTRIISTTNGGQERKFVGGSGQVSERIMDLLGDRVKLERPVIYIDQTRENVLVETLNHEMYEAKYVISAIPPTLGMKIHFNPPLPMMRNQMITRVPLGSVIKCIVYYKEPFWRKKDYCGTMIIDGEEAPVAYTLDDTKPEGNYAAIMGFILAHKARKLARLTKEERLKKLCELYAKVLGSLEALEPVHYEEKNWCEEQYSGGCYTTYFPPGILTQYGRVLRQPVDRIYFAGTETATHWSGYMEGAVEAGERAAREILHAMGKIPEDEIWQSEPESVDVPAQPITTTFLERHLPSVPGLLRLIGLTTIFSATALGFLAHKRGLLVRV
Protocol: (§1) The inhibition assays of human monoamine oxidases were conducted using a fluorescence-based method with kynuramine as a non-selective substrate for each isoform, MAO-A/B [44, 45, 46]. Recombinant human MAO-A and MAO-B (microsomes from insect cells infected with baculovirus; Sigma Aldrich, St. Louis, MO, USA) (Merk Life Science S.r.l., Milan, Italy) were used. The measurements were performed in triplicate in black round-bottom polystyrene 96-well plates (Greiner Bio-One, Kremsmünster, Austria). […] In the MAO inhibition assays, all compounds were initially screened at a concentration of 10 µM. Each of them was preincubated at 37 °C for 20 min with 50 µM kynuramine in a phosphate buffer (PBS, 0.1 M, pH 8.0), adjusted to 0.39 osmolarity with KCl. After adding recombinant human MAO-A/B (250 U/mg and 59 U/mg, respectively) and incubating for another 30 min, NaOH was added. The fluorescence was measured at excitation/emission wavelengths of 310/400 nm. […] The IC50 is reported as the mean ± SD of three independent experiments, each performed in duplicate.

electric eel eeAChE = molecular target: T3, electric eel eeAChE (Electrophorus electricus, UniProt O42275); test: biochemical; conditions: for inhibition at 10 µM / eeAChE % inhibition: at 10 µM concentration, mean ± SD; for IC50: mean ± SD of three independent determinations, ~10 means 50–60% inhibition at 10 µM
T3 construct: Acetylcholinesterase from electric eel and butyrylcholinesterase from equine serum (Sigma Aldrich) were employed; purchased Sigma Aldrich; host or cells: electric eel (natural source)
T3 sequence (O42275 24-633): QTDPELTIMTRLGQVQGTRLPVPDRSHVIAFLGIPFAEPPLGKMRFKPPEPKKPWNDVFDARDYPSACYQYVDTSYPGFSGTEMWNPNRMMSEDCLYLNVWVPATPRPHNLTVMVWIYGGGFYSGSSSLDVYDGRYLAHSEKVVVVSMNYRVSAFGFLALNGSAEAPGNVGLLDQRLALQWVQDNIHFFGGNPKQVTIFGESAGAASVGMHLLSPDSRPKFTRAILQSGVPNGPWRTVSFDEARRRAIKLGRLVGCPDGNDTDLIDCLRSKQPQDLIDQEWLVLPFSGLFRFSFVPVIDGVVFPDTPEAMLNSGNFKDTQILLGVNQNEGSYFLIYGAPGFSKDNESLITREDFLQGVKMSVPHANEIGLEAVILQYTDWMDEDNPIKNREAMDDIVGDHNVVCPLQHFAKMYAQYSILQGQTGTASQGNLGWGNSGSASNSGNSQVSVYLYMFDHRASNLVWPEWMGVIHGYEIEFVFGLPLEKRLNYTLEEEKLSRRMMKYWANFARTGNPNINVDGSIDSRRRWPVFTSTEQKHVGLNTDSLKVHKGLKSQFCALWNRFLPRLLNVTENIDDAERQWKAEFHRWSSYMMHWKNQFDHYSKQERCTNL

horse serum eqBChE = molecular target: T4, horse serum eqBChE (Equus caballus, UniProt P81908); test: biochemical; format: biochemical; conditions: for inhibition at 10 µM / eqBChE % inhibition / eqBChE inhibition class: at 10 µM concentration
T4 construct: Acetylcholinesterase from electric eel and butyrylcholinesterase from equine serum (Sigma Aldrich) were employed; purchased Sigma Aldrich; host or cells: equine serum
T4 sequence (P81908 whole entry): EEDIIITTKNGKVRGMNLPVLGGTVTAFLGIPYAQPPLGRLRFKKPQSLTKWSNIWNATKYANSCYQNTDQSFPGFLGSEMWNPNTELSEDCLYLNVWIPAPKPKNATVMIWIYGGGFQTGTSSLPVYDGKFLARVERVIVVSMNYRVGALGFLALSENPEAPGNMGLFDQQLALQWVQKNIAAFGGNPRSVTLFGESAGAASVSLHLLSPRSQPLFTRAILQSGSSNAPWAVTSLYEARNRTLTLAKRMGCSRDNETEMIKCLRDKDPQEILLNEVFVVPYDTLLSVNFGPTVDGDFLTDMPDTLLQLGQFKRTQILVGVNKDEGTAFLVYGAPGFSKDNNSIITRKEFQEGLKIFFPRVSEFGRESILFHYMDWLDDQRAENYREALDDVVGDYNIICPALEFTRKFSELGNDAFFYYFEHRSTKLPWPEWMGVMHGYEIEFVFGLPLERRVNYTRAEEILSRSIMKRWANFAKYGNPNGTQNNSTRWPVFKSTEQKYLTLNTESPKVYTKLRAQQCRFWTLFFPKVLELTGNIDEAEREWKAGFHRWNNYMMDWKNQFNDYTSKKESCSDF
Protocol: (§2) Cholinesterase inhibition assays were carried out using the Ellman spectrophotometric method, modified for a 96-well plate format. Acetylcholinesterase from electric eel and butyrylcholinesterase from equine serum (Sigma Aldrich) were employed. The measurements were performed in triplicate using clear, flat-bottom polystyrene plates (Greiner Bio-One).

[2] = Kinetic solubility in aqueous buffers (RP-HPLC); format: physicochemical; conditions: PBS buffer, 25 °C, pH 7.4, aqueous buffer, kinetic from dmso stock, PBS (50 mM, pH 7.4, 0.15 M KCl) at 25 ± 1 °C, n = 3; read-out: Solubility Exp.
Protocol: Water solubility and lipophilicity parameters were measured following previously reported methods. […] The mixture was then separated by centrifugation at 2500 rpm for 3 min. Immediately after filtration, 100 µL of the filtrate was mixed with an equal volume of a 1:1 (v/v) DMSO and PBS (50 mM, pH 7.4, KCl 0.15 M) or HCl (0.01 M, pH 2, KCl 0.15 M) solution to prevent precipitation from the saturated solution and subsequently analyzed by HPLC. The peak area was compared to a calibration curve of the tested compound in MeOH. The analytical parameters were set as follows. Mobile phase: MeOH/water pH 2.8 (acetic acid 0.5% v/v) at different percentages depending on the retention time of each test compound; stationary phase: Phenomenex, Kinetex 5 µ, C8, (150 × 3 mm); flux: […]; injection: 2 µL; λ 330 nm. The analyses were performed on the Agilent HPLC 1260 Infinity Series Integrated System (Agilent Technologies, Milan, Italy).

[3] = Lipophilicity by RP-HPLC (log k'w); format: physicochemical; conditions: C18, extrapolated to 100% water mobile phase
Protocol: The lipophilicity of the five compounds in Table 4 was assessed by calculation and experimental approaches. As a calculated lipophilicity parameter (log Pcalc), we took from the SwissADME free website (http://www.swissadme.ch) the ‘Consensus Log Po/w’, that is, the arithmetic mean of octanol/water log Ps calculated by five methods (iLOGP, XLOGP3, WLOGP, MLOGP, and SILICOS-IT).
The lipophilicity parameters were determined by an RP-HPLC technique. In short, methanolic solutions of the examined compounds (1 mg·mL^−1) were analyzed by the Agilent 1260 infinite HPLC system (Agilent Technologies, Milan, Italy) equipped with a diode array detector (DAD), using a Phenomenex C18-column (Kinetex 5 μ, 100 Å, 150 × 3 mm) as the stationary phase and MeOH/water buffer mobile phases with different v/v composition (i.e., mobile phases containing 0.05 increments of MeOH volume fractions in 10 mM ammonium formate buffer at pH 4.5; φMeOH ranging between 0.70 and 0.20). The chromatographic measurements were carried out at 25 ± 1 °C, flow rate of 0.5 mL·min^−1, and detection at λ 330 nm. The log of capacity factors of each compound at different mobile phase compositions was calculated (log k′ = log (tR − t0)/t0, where tR represents the retention time of the solute and t0 is the column dead time). For each compound, the equation of the linear relationship between log k′ and φMeOH (R^2 > 0.991) on at least five datapoints, each from duplicate, was derived by regression analysis and the intercept at the y-axis (i.e., φMeOH = 0) calculated as the lipophilicity parameter log k′w.

human MAO-A [4] = molecular target: T1, human MAO-A; test: biochemical; format: biochemical; conditions: for inhibition at 10 µM / huMAO-A % inhibition: at 10 µM concentration, mean ± SD; for IC50: mean ± SD of three independent determinations, ~10 means 50–60% inhibition at 10 µM
Protocol: as §1

human huAChE = human huAChE (Homo sapiens, UniProt P22303); test: biochemical; format: biochemical
human huAChE, sequence (P22303 32-614): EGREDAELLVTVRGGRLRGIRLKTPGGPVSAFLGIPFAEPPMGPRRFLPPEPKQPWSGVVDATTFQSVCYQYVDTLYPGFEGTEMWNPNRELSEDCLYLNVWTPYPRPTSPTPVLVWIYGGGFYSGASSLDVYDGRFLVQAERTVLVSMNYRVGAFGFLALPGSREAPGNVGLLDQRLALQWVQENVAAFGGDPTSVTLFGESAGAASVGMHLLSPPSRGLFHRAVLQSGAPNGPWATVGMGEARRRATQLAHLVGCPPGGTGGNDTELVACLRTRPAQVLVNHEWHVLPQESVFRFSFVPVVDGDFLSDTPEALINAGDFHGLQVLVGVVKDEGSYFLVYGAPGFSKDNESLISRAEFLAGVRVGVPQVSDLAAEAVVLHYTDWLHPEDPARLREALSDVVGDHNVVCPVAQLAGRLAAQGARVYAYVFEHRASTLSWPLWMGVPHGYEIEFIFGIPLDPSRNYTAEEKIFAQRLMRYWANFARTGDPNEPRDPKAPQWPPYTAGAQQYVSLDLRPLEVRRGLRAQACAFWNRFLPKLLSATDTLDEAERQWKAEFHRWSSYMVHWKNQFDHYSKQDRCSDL
Protocol: The inhibition of human huAChE was also evaluated for five compounds.
as §2

[5] = mean ± SD, read-out: eqBChE % inhibition
[6] = mean ± SD of three independent determinations, ~10 means 50–60% inhibition at 10 µM

C#CCN(C)CCCOc1ccc(Cl)cc1Cl [Clorgiline, reference compound]
reversibility of MAO-A inhibition (human MAO-A [1]): completely flattened

COc1cccc2cc(-c3cc(=O)oc4c(CN(C)C)c(O)ccc34)c(=O)oc12 [Compound 2d, 8-((dimethylamino)methyl)-4-(8-methoxy-2-oxo-2H-chromen-3-yl)-7-hydroxy-2H-chromen-2-one]
inhibition at 10 µM (human huMAO-B): 28%
inhibition at 10 µM (electric eel eeAChE): 39%
inhibition at 10 µM (horse serum eqBChE; [5]): 25%
solubility at 2 h [2]: 196 µM (≈ 77.1 µg/mL)
Log k’w (polycratic capacity factor) [3]: 2.32

CCCN(CCC)Cc1c(O)ccc2c(-c3cc4ccccc4oc3=O)cc(=O)oc12 [Compound 4a]
inhibition at 10 µM (human MAO-A [4]): 29%
inhibition at 10 µM (human huMAO-B): 33%
inhibition at 10 µM (electric eel eeAChE): 37%
inhibition at 10 µM (horse serum eqBChE; [5]): 22%

CCCN(CCC)Cc1c(O)ccc2c(-c3cc4cccc(OC)c4oc3=O)cc(=O)oc12 [Compound 4d, 8-((dipropylamino)methyl)-4-(8-methoxy-2-oxo-2H-chromen-3-yl)-7-hydroxy-2H-chromen-2-one]
inhibition at 10 µM (human MAO-A [4]): 29%
inhibition at 10 µM (human huMAO-B): 43%
IC50 (electric eel eeAChE): < 10 µM and 3.05 µM
IC50 (human huAChE): 0.97 ± 0.2 µM
inhibition at 10 µM (horse serum eqBChE; [5]): 14%

CCCCN(C)Cc1c(O)ccc2c(-c3cc4cc(Cl)ccc4oc3=O)cc(=O)oc12 [Compound 5b]
IC50 (human MAO-A [4]): 1.85 ± 0.11 µM
IC50 (human huMAO-B; [6]): ~10 µM
eeAChE % inhibition (electric eel eeAChE): [25 ± 5] %
IC50 (human huAChE; [6]): ~10 µM
eqBChE % inhibition (horse serum eqBChE; mean ± SD): [17 ± 7] %
mode of inhibition of MAO-A (human MAO-A [1]; Michaelis–Menten and Lineweaver–Burk plots): competitive
Ki (human MAO-A [1]; human MAO-A, competitive inhibition, read-out: inhibition constant (Ki) MAO-A): 0.326 µM
reversibility of MAO-A inhibition (human MAO-A [1]): reversible

CCCCN(C)Cc1c(O)ccc2c(-c3cc4cccc(OC)c4oc3=O)cc(=O)oc12 [Compound 5d, 8-((butyl(methyl)amino)methyl)-4-(8-methoxy-2-oxo-2H-chromen-3-yl)-7-hydroxy-2H-chromen-2-one]
inhibition at 10 µM (human MAO-A [4]): 39%
IC50 (human huMAO-B): ~10 µM
IC50 (electric eel eeAChE): < 10 µM and 7.8 µM
inhibition at 10 µM (horse serum eqBChE; [5]): 40%

COCCN(CCOC)Cc1c(O)ccc2c(-c3cc4cc(Cl)ccc4oc3=O)cc(=O)oc12 [Compound 6b]
huMAO-A % inhibition (human MAO-A [4]): [45 ± 3] %
huMAO-B % inhibition (human huMAO-B): [35 ± 9] %
eeAChE % inhibition (electric eel eeAChE): [16 ± 4] %
eqBChE inhibition class (horse serum eqBChE): i.a. (compounds displaying average % inhibition less than 10% at 10 µM concentration)

COCCN(CCOC)Cc1c(O)ccc2c(-c3cc4cccc(OC)c4oc3=O)cc(=O)oc12 [Compound 6d, 8-((bis(2-methoxyethyl)amino)methyl)-4-(8-methoxy-2-oxo-2H-chromen-3-yl)-7-hydroxy-2H-chromen-2-one]
inhibition at 10 µM (human MAO-A [4]): 26%
inhibition at 10 µM (human huMAO-B): 31%
inhibition at 10 µM (electric eel eeAChE): 20%
inhibition at 10 µM (horse serum eqBChE; read-out: eqBChE inhibition class): < 10%

COc1cccc2cc(-c3cc(=O)oc4c(CN(CC(C)C)CC(C)C)c(O)ccc34)c(=O)oc12 [Compound 7d]
huMAO-A % inhibition (human MAO-A [4]): [27 ± 3] %
huMAO-B % inhibition (human huMAO-B): [31 ± 2] %
IC50 (electric eel eeAChE): ~10 µM
eqBChE % inhibition (horse serum eqBChE; mean ± SD): [34 ± 3] %

CN(Cc1ccccc1)Cc1c(O)ccc2c(-c3cc4cc(Cl)ccc4oc3=O)cc(=O)oc12 [Compound 8b]
IC50 (human MAO-A [4]): ~10 µM
huMAO-B % inhibition (human huMAO-B): [38 ± 3] %
eeAChE % inhibition (electric eel eeAChE): [16 ± 6] %
eqBChE inhibition class (horse serum eqBChE): i.a. (compounds displaying average % inhibition less than 10% at 10 µM concentration)

COc1cccc2cc(-c3cc(=O)oc4c(CN(C)Cc5ccccc5)c(O)ccc34)c(=O)oc12 [Compound 8d]
huMAO-A % inhibition (human MAO-A [4]): [31 ± 4] %
huMAO-B % inhibition (human huMAO-B): [42 ± 3] %
IC50 (electric eel eeAChE): ~10 µM
IC50 (horse serum eqBChE; [6]): ~10 µM
